From patent US5610003A, “Two-equivalent magenta photographic couplers with activity-modifying ballasting groups” (Eastman Kodak Company, priority 1995, dated 1997) come the findings set out here.

The nature of series [1]: Taft steric parameter Es of sterically hindering group. Format: physicochemical. Also on record: key: Taft steric parameter Es, referenced to H = 0 (more negative = bulkier). The source says: Y is a monovalent organic group which sterically hinders leuco dye formation. The sterically hindering group is characterizedby a negative Es value greater than the absolute value of -1.5 and more preferably greater than the absolute value of -2.0. The Es value refers to the Taft steric parameter, referenced to H=O and defined as: […]
where k refers to the rate constant for the acid hydrolysis of esters of the type X--CH2 COOR and 1.24 is the hydrolysis rate of formate. A detailed description of this parameter is provided by S. H. Unger and C. Hansch, Prog. Phys. Org. Chem., 12, 91 (1976).

The nature of series [2]: π value of R^4 group. The class given is physicochemical. Details: key: π from partition coefficients of derivative (Px) vs parent (PH). The conditions noted are these: substituent R^4. As to the method:
R^4 is a monovalent organic group with a π value of at least 2.1. As used herein, the π value is determined by the equation: […]
where Px is the partition coefficient of a derivative and PH is the partition coefficient of the parent compound. A detailed description of the determination of the π value is provided by A. Leo, C. Hansch and D. Elkins, Chem. Rev., 71, 525 (1971).

The structures appear in SMILES notation.

Take `CCCCC(Oc1ccc(C(C)(C)CC)cc1C(C)(C)CC)C(=O)NC1=NN(c2c(Cl)cc(Cl)cc2Cl)C(=O)C1n1cccn1` (stereo not drawn) [Example 4]: the “Es Value for Sterically Hindering Group” value in series [1] is -3.0. The “π Value for R^4” value in series [2] is reported as 2.1. On to `CCCCCCC(Oc1ccc(C(C)(C)CC)cc1C(C)(C)CC)C(=O)NC1=NN(c2c(Cl)cc(Cl)cc2Cl)C(=O)C1n1cccn1` (stereo not drawn) [Example 5], for which the “Es Value for Sterically Hindering Group” value in series [1] is reported as -3.0. Besides, the “π Value for R^4” value in series [2] stood at 3.2. As to `CCCCCCC(Oc1cc2c(cc1C(C)(C)CC(C)(C)C)OC(C)(C)CC2(C)C)C(=O)NC1=NN(c2c(Cl)cc(Cl)cc2Cl)C(=O)C1n1cccn1` (stereo not drawn) [Example 9], the “Es Value for Sterically Hindering Group” value in series [1] was -2.6. Further, in series [2], the “π Value for R^4” value is 4.3. `CCCCCCCCCCCCCCCCC(Oc1ccc(C(C)(C)CC)cc1C(C)(C)CC)C(=O)NC1=NN(c2c(Cl)cc(Cl)cc2Cl)C(=O)C1n1cccn1` (stereo not drawn) [Example 8]: in series [1], the “Es Value for Sterically Hindering Group” value is recorded as -3.0. In addition, in series [2], the “π Value for R^4” value is given as 8.6.

On to `CCCCCCCCCCCCC(Oc1ccc(C)cc1C(C)(C)CC(C)(C)C)C(=O)NC1=NN(c2c(Cl)cc(Cl)cc2Cl)C(=O)C1n1cccn1` (stereo not drawn) [Example 16], for which, in series [1], the “Es Value for Sterically Hindering Group” value is -2.6. For the same compound, in series [2], the “π Value for R^4” value came out at 6.5.

Turning to `CCC(C)(C)c1ccc(OCC(=O)Nc2ccc(Oc3ccc(C(C)(C)CC)cc3C(C)(C)CC)c(C(=O)NC3=NN(c4c(Cl)cc(Cl)cc4Cl)C(=O)C3n3cccn3)c2)c(C(C)(C)CC)c1` (stereo not drawn) [Example 15], the “Es Value for Sterically Hindering Group” value in series [1] was -3.0. On to `CCCCCCCCCCC(Oc1ccc(S(=O)(=O)c2ccc(OCc3ccccc3)cc2)cc1)C(=O)Nc1ccc(Oc2ccc(C(C)(C)CC)cc2C(C)(C)CC)c(C(=O)NC2=NN(c3c(Cl)cc(Cl)cc3Cl)C(=O)C2n2cccn2)c1` (stereo not drawn) [Example 14], for which, in series [1], the “Es Value for Sterically Hindering Group” value is -3.0. For `CCCCCCCCCCCCC(Oc1ccc(C(C)(C)CC(C)(C)C)cc1C(C)(C)CC(C)(C)C)C(=O)NC1=NN(c2c(Cl)cc(Cl)cc2Cl)C(=O)C1n1cccn1` (stereo not drawn) [Example 3], the “Es Value for Sterically Hindering Group” value in series [1] was -2.6. Also, in series [2], the “π Value for R^4” value is given as 6.5.

For the compound `CCCCCCC(Oc1ccc(C(C)(C)CC(C)(C)C)cc1C(C)(C)CC(C)(C)C)C(=O)NC1=NN(c2c(Cl)cc(Cl)cc2Cl)C(=O)C1n1cccn1` (stereo not drawn) [Example 1], the “Es Value for Sterically Hindering Group” value in series [1] is -2.6. In series [2], the “π Value for R^4” value was found to be 3.2. On to `CCCCCCCCCCCC(=O)Nc1ccc(Oc2ccc(C(C)(C)CC)cc2C(C)(C)CC)c(C(=O)NC2=NN(c3c(Cl)cc(Cl)cc3Cl)C(=O)C2n2cccn2)c1` (stereo not drawn) [Example 13], for which the “Es Value for Sterically Hindering Group” value in series [1] was -3.0. With `CCCCCCCCCCCCC(Oc1ccc(CCCCC)cc1CCCCC)C(=O)NC1=NN(c2c(Cl)cc(Cl)cc2Cl)C(=O)C1n1cccn1` (stereo not drawn) [Example 10], the “Es Value for Sterically Hindering Group” value in series [1] is -1.6. Further, the “π Value for R^4” value in series [2] was determined as 6.5.

For `CCCCCCCCCCCCC(Oc1ccc(C(C)(C)CC(C)(C)C)cc1)C(=O)NC1=NN(c2c(Cl)cc(Cl)cc2Cl)C(=O)C1n1cccn1` (stereo not drawn) [Example 17], the “Es Value for Sterically Hindering Group” value in series [1] is recorded as -2.6. The “π Value for R^4” value in series [2] is 6.5. In the case of `CCCCCCCCCCCCC(Oc1ccc(C(C)(C)CC)cc1C(C)(C)CC)C(=O)NC1=NN(c2c(Cl)cc(Cl)cc2Cl)C(=O)C1n1cccn1` (stereo not drawn) [Example 7], the “Es Value for Sterically Hindering Group” value in series [1] is recorded as -3.0. Besides, the “π Value for R^4” value in series [2] stood at 6.5. For `CCCCCCCCC(Oc1ccc(C(C)(C)CC(C)(C)C)cc1C(C)(C)CC(C)(C)C)C(=O)NC1=NN(c2c(Cl)cc(Cl)cc2Cl)C(=O)C1n1cccn1` (stereo not drawn) [Example 2], the “Es Value for Sterically Hindering Group” value in series [1] is given as -2.6. For the same compound, the “π Value for R^4” value in series [2] is recorded as 4.3. As to `CCC(C)(C)c1ccc(Oc2ccc([N+](=O)[O-])cc2C(=O)NC2=NN(c3c(Cl)cc(Cl)cc3Cl)C(=O)C2n2cccn2)c(C(C)(C)CC)c1` (stereo not drawn) [Example 12], the “Es Value for Sterically Hindering Group” value in series [1] is -3.0.

For the compound `CCCCCCCCCCCCC(Oc1cc(C(C)(C)C)cc(C(C)(C)C)c1)C(=O)NC1=NN(c2c(Cl)cc(Cl)cc2Cl)C(=O)C1n1cccn1` (stereo not drawn) [Example 11], the “Es Value for Sterically Hindering Group” value in series [1] is recorded as -2.8. For the same compound, in series [2], the “π Value for R^4” value came out at 6.5. For the compound `CCCCCCCCC(Oc1ccc(C(C)(C)CC)cc1C(C)(C)CC)C(=O)NC1=NN(c2c(Cl)cc(Cl)cc2Cl)C(=O)C1n1cccn1` (stereo not drawn) [Example 6], the “Es Value for Sterically Hindering Group” value in series [1] is listed as -3.0. Moreover, in series [2], the “π Value for R^4” value is reported as 4.3.
